Assay results from patent US20220296595A1, “CDK INHIBITORS” (QILU REGOR THERAPEUTICS INC., priority 2019, published 2022).
pIC50: −log10 of the molar value. Like-named read-outs stand apart in the source and are kept apart here.

Key:
[1] = tested on: phosphorylation of Retinoblastoma Protein (pRb Ser807/811 or Ser780) in T47D cells; assay: Inhibition of phosphorylation of retinoblastoma protein (pRb) in T47D cell (ELISA); format: cell-based, human
Method in brief: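 T47D cells in RPMI 1640 + 10% FBS, adhered overnight, then treated 24 h with 3-fold compound titrations (top concentration […]). Lysates assayed by sandwich ELISA for pRb Ser807/811 or Ser780 with HRP/TMB detection. IC50 from 4-parameter sigmoidal fit.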

CDK4/CyclinD1 = biological target: T1, CDK4/CyclinD1 (Homo sapiens, UniProt P11802); assay: Assay for inhibition of CDK4/CyclinD1 (Caliper microfluidic kinase assay); format: biochemical
T1 construct: purchased Thermofisher PR8064A
T1 sequence (P11802 whole entry): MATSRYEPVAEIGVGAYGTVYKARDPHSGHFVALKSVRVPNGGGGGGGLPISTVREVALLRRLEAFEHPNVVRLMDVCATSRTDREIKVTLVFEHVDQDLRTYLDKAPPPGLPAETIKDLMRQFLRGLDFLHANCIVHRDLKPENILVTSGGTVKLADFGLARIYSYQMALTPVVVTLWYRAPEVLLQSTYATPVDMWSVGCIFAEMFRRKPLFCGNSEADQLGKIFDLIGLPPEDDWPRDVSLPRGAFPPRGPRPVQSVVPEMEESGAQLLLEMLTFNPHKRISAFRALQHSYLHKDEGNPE
T1 sequence (P24385 whole entry partner): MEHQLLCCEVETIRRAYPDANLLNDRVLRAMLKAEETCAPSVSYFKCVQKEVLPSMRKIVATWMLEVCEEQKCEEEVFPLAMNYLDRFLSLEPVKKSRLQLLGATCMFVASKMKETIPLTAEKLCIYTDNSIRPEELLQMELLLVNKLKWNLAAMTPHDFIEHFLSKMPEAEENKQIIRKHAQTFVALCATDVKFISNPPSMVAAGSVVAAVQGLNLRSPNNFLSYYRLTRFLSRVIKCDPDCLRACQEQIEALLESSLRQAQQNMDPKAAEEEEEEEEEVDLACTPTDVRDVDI
Method in brief: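 IC50 was obtained by 4-parameter sigmoidal fitting after 1 nM CDK4/CyclinD1, 200 μM ATP and 1 μM FL-34 substrate reacted for 3 h at room temperature (pH 7.5 HEPES, 10 mM MgCl2). After EDTA quench, substrate and product were separated and detected on a Caliper microfluidic chip.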

CDK6/CyclinD3 = biological target: T2, CDK6/CyclinD3 (Homo sapiens, UniProt Q00534); assay: Assay for inhibition of CDK6/CyclinD3 (Caliper microfluidic kinase assay); format: biochemical
T2 construct: purchased Carna 04-107
T2 sequence (Q00534 whole entry): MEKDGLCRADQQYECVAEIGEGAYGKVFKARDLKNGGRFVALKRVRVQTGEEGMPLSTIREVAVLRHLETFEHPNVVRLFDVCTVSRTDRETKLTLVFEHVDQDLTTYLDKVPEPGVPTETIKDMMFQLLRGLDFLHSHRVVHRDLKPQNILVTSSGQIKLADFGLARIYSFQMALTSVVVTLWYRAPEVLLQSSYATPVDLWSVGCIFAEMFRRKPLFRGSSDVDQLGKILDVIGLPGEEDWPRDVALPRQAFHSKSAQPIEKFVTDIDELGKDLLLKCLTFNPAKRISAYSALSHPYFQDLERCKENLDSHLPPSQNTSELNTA
T2 sequence (P30281 whole entry partner): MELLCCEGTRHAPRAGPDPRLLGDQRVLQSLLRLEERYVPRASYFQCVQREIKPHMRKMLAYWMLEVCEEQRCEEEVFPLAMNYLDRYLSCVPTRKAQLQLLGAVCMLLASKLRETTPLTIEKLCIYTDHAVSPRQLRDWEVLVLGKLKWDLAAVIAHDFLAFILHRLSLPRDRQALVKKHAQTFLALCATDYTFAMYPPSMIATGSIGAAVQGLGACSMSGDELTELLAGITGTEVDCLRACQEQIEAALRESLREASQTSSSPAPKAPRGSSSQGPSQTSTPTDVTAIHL
Method in brief: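 IC50s came from four-parameter dose-response fits of microfluidic substrate/product separation data. Reactions held 2 nM CDK6/CyclinD3, 300 μM ATP and 1 μM 5-FAM peptide FL-34 in pH 7.5 HEPES/MgCl2 buffer, ran 3 hours at room temperature, then were quenched with EDTA.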

CDK2/CyclinE1 = biological target: T3, CDK2/CyclinE1 (Homo sapiens, UniProt P24941); assay: Assay for inhibition of CDK2/CyclinE1 (Caliper microfluidic kinase assay); format: biochemical; details: read-out: CDK2 IC50
T3 construct: purchased SignalChem C29-18G
Method in brief: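 IC50 came from 4-parameter fits of substrate-to-product conversion, separated on a Caliper chip after an EDTA stop. Reactions ran 3 hours at room temperature with 100 μM ATP, 5 μM fluorescent FL-18 peptide and 5 nM enzyme in 100 mM HEPES pH 7.5, 10 mM MgCl2.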

T47D breast cancer cells = assay: Anti-proliferation assay in T47D cell (Cyquant, day 6); format: cell-based, human; details: anti-proliferation, T47D cells, read-out: T47D IC50
Method in brief: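 A ten-point, 3-fold compound series (10 μM down to 0.51 nM) was applied to overnight-settled cells in 10% FBS RPMI 1640, and DNA content was read by CyQuant fluorescence 6 days later. An untreated plate read before dosing served as baseline for subtraction before IC50 fitting.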

[2] = Homo sapiens, T47D, read-out: Phospho T47D Ser807 IC50, pRb Ser807 phosphorylation, T47D cells

| Structure (SMILES) | pIC50 [1, 2] | pIC50 (CDK4/CyclinD1; CDK4/CyclinD1, 200 μM ATP) | pIC50 (CDK6/CyclinD3; CDK6/CyclinD3, 300 μM ATP) | pIC50 (CDK2/CyclinE1; CDK2/CyclinE1, 100 μM ATP) | pIC50 (T47D breast cancer cells; Homo sapiens, T47D) | pIC50 (CDK4/CyclinD1; CDK4/CyclinD1) | pIC50 (CDK6/CyclinD3; CDK6/CyclinD3) | pIC50 (CDK2/CyclinE1; CDK2/CyclinE1) | pIC50 ([1]; read-out: Phospho T47D Ser807 IC50, pRb Ser807 phosphorylation, T47D cells) | pIC50 (T47D breast cancer cells) |
| --- | --- | --- | --- | --- | --- | --- | --- | --- | --- | --- |
| CC(C)n1cnc2c1CN(c1ccnc(Nc3ccc(N4CCC(C)(N)CC4=O)cn3)n1)CC2 (centres unmarked) [compound 244] | 6.00 to 6.30 | > 8.00 | 6.00 to 7.00 | 7.00 to 8.00 | 6.00 to 6.30 | – | – | – | – | – |
| CC(C)n1cnc2c(F)nc(-c3ccnc(Nc4ccc(N5CCNCC5=O)cn4)n3)cc21 [compound 273] | > 7.00 | > 8.00 | 7.00 to 8.00 | 7.00 to 8.00 | > 7.00 | – | – | – | – | – |
| CC(C)c1cnn2ccc(-c3ccnc(Nc4ccc(N5CCCC(N(C)C)C5=O)cn4)n3)cc12 (centres unmarked) [compound 157] | > 7.00 | > 8.00 | 7.00 to 8.00 | 6.00 to 7.00 | > 7.00 | – | – | – | – | – |
| COc1nc(-c2nc(Nc3ccc(N4CCCCC4=O)cn3)ncc2F)cc2c1nc(C)n2C(C)C [compound 93] | 6.30 to 7.00 | – | – | – | 6.30 to 7.00 | > 8.00 | 7.00 to 8.00 | < 6.00 | – | – |
| CC(C)c1cnn2ccc(-c3ccnc(Nc4ccc(N5CCCNCC5=O)cn4)n3)cc12 [compound 30] | > 7.00 | > 8.00 | 7.00 to 8.00 | 7.00 to 8.00 | 6.30 to 7.00 | – | – | – | – | – |
| COc1nc(-c2nc(Nc3ccc(N4CCC(N(C)C)CC4=O)cn3)ncc2F)cc2c1nc(C)n2C(C)C (single isomer, unassigned) [Example 62-1, 4-(dimethylamino)-1-[6-[[5-fluoro-4-(1-isopropyl-4-methoxy-2-methyl-imidazo[4,5-c]pyridin-6-yl)pyrimidin-2-yl]amino]-3-pyridyl]piperidin-2-one] | 6.30 to 7.00 | > 8.00 | 7.00 to 8.00 | < 6.00 | 6.30 to 7.00 | – | – | – | – | – |
| CC1CN(c2ccc(Nc3ncc(F)c(-c4ccn5ncc(C(C)C)c5c4)n3)nc2)C(=O)CCN1 (centres unmarked) [compound 194] | > 7.00 | > 8.00 | 7.00 to 8.00 | 7.00 to 8.00 | 6.30 to 7.00 | – | – | – | – | – |
| COc1nc(-c2nc(Nc3ccc(N4CCC(N(C)C)CC4=O)cn3)ncc2F)cc2c1nc(C)n2C(C)C (single isomer, unassigned) [Example 62-2, 4-(dimethylamino)-1-[6-[[5-fluoro-4-(1-isopropyl-4-methoxy-2-methyl-imidazo[4,5-c]pyridin-6-yl)pyrimidin-2-yl]amino]-3-pyridyl]piperidin-2-one] | – | > 8.00 | 7.00 to 8.00 | < 6.00 | – | – | – | – | > 7.00 | > 7.00 |
| CC(C)n1cnc2c(F)nc(-c3ccnc(Nc4ccc(N5CCCC(N(C)C)C5=O)cn4)n3)cc21 (centres unmarked) [compound 283] | > 7.00 | > 8.00 | > 8.00 | < 6.00 | > 7.00 | – | – | – | – | – |
| CC(C)c1cnn2ccc(-c3nc(Nc4ccc(N5CCC(N6CC(F)(F)C6)CC5=O)cn4)ncc3F)cc12 (centres unmarked) [compound 158] | > 7.00 | > 8.00 | 7.00 to 8.00 | 7.00 to 8.00 | > 7.00 | – | – | – | – | – |
| COc1nc(-c2ccnc(Nc3ccc(N4CCC(C)(N)C4)cn3)n2)cc2c1ncn2C(C)C (centres unmarked) [compound 117] | 6.30 to 7.00 | 7.00 to 8.00 | 7.00 to 8.00 | < 6.00 | 6.30 to 7.00 | – | – | – | – | – |
| CCN1CCN(Cc2ccc(Nc3nccc(-c4cc5c(ncn5C(C)C)c(F)n4)n3)nc2)CC1 [compound 285] | > 7.00 | > 8.00 | 7.00 to 8.00 | < 6.00 | > 7.00 | – | – | – | – | – |
| CC(C)n1cnc2c(F)nc(-c3ccnc(Nc4ccc(N5CC6CC5CN6)cn4)n3)cc21 (centres unmarked) [compound 272] | > 7.00 | > 8.00 | 7.00 to 8.00 | 6.00 to 7.00 | > 7.00 | – | – | – | – | – |
| CC(C)c1cnn2ccc(-c3ccnc(Nc4ccc(N5CCOCC5=O)cn4)n3)cc12 [compound 28] | > 7.00 | > 8.00 | 7.00 to 8.00 | > 8.00 | > 7.00 | – | – | – | – | – |
| CC(C)c1cnn2ccc(-c3ccnc(Nc4ccc(N5CCN(S(C)(=O)=O)CCC5=O)cn4)n3)cc12 [compound 236] | > 7.00 | > 8.00 | > 8.00 | 7.00 to 8.00 | > 7.00 | – | – | – | – | – |
| COc1nc(-c2nc(Nc3ccc(N4CCOCCC4=O)cn3)ncc2F)cc2c1nc(C)n2C(C)C [compound 73] | > 7.00 | – | – | – | 6.00 to 6.30 | > 8.00 | 7.00 to 8.00 | < 6.00 | – | – |
